Laboratory results from the supplement of paper PMC10307832.

Tests used:
Experiment in all cases: relative viability (nuclei count vs DMSO), 5 days (fraction); higher = more cells survive
[1] = system: A-427
How it was run: (§1)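 Lung cancer cell lines, seeded in 1536-well plates, were treated the following day by pin tool with a single drug or with five library-drug doses (not always all listed) in √10 steps on top of a fixed anchor-drug dose. Cells were fixed and nuclei stained in one step after 5 days, and nuclei were counted. Relative viability is the nuclei count for treated wells divided by that for vehicle wells, reported as medians of duplicate plates.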

[2] = system: COR-L 105
How it was run: as §1

[3] = system: H3255
How it was run: as §1

[4] = system: HCC-44
How it was run: as §1

[5] = system: HCC-827
How it was run: as §1

[6] = system: LCLC-103H
How it was run: as §1

[7] = system: LOU-NH91
How it was run: as §1

[8] = system: LXF-289
How it was run: as §1

[9] = system: NCI-H1792
How it was run: as §1

[10] = system: NCI-H1793
How it was run: as §1

[11] = system: NCI-H1915
How it was run: as §1

[12] = system: NCI-H1944
How it was run: as §1

[13] = system: NCI-H1975
How it was run: as §1

[14] = system: NCI-H1993
How it was run: as §1

[15] = system: NCI-H2023
How it was run: as §1

[16] = system: NCI-H2087
How it was run: as §1

[17] = system: NCI-H2170
How it was run: as §1

[18] = system: NCI-H358
How it was run: as §1

[19] = system: NCI-H520
How it was run: as §1

[20] = system: NCI-H522
How it was run: as §1

[21] = system: SK-MES-1
How it was run: as §1

[22] = system: SW 1573
How it was run: as §1

[23] = system: SW 900
How it was run: as §1

CCNC(=O)c1noc(-c2cc(C(C)C)c(O)cc2O)c1-c1ccc(CN2CCOCC2)cc1 [Luminespib] + CC(=O)c1c(C)c2cnc(Nc3ccc(N4CCNCC4)cn3)nc2n(C2CCCC2)c1=O [Palbociclib] (partner 0.5 µM)
relative viability ([1]; first compound 0.002 µM): 0.516 | relative viability ([1]; first compound 0.006325 µM): 0.488 | relative viability ([1]; first compound 0.02 µM): 0.503 | relative viability ([1]; first compound 0.06325 µM): 0.467 | relative viability ([1]; first compound 0.2 µM): 0.258 | relative viability ([2]; first compound 0.002 µM): 0.412 | relative viability ([2]; first compound 0.006325 µM): 0.445 | relative viability ([2]; first compound 0.02 µM): 0.366 | relative viability ([2]; first compound 0.06325 µM): 0.265 | relative viability ([2]; first compound 0.2 µM): 0.289 | relative viability ([3]; first compound 0.002 µM): 0.325 | relative viability ([3]; first compound 0.006325 µM): 0.304 | relative viability ([3]; first compound 0.02 µM): 0.308 | relative viability ([3]; first compound 0.06325 µM): 0.281 | relative viability ([3]; first compound 0.2 µM): 0.296 | relative viability ([4]; first compound 0.002 µM): 0.942 | relative viability ([4]; first compound 0.006325 µM): 0.998 | relative viability ([4]; first compound 0.02 µM): 1.09 | relative viability ([4]; first compound 0.06325 µM): 0.986 | relative viability ([4]; first compound 0.2 µM): 0.858 | relative viability ([5]; first compound 0.002 µM): 0.492 | relative viability ([5]; first compound 0.006325 µM): 0.473 | relative viability ([5]; first compound 0.02 µM): 0.326 | relative viability ([5]; first compound 0.06325 µM): 0.178 | relative viability ([5]; first compound 0.2 µM): 0.148 | relative viability ([6]; first compound 0.002 µM): 0.481 | relative viability ([6]; first compound 0.006325 µM): 0.454 | relative viability ([6]; first compound 0.02 µM): 0.447 | relative viability ([6]; first compound 0.06325 µM): 0.469 | relative viability ([6]; first compound 0.2 µM): 0.468 | relative viability ([7]; first compound 0.002 µM): 0.557 | relative viability ([7]; first compound 0.006325 µM): 0.533 | relative viability ([7]; first compound 0.02 µM): 0.503 | relative viability ([7]; first compound 0.06325 µM): 0.375 | relative viability ([7]; first compound 0.2 µM): 0.354 | relative viability ([8]; first compound 0.002 µM): 0.582 | relative viability ([8]; first compound 0.006325 µM): 0.569 | relative viability ([8]; first compound 0.02 µM): 0.601 | relative viability ([8]; first compound 0.06325 µM): 0.574 | relative viability ([8]; first compound 0.2 µM): 0.535 | relative viability ([9]; first compound 0.002 µM): 0.691 | relative viability ([9]; first compound 0.006325 µM): 0.655 | relative viability ([9]; first compound 0.02 µM): 0.622 | relative viability ([9]; first compound 0.06325 µM): 0.316 | relative viability ([9]; first compound 0.2 µM): 0.278 | relative viability ([10]; first compound 0.002 µM): 0.306 | relative viability ([10]; first compound 0.006325 µM): 0.334 | relative viability ([10]; first compound 0.02 µM): 0.211 | relative viability ([10]; first compound 0.06325 µM): 0.151 | relative viability ([10]; first compound 0.2 µM): 0.165 | relative viability ([11]; first compound 0.002 µM): 0.562 | relative viability ([11]; first compound 0.006325 µM): 0.507 | relative viability ([11]; first compound 0.02 µM): 0.478 | relative viability ([11]; first compound 0.06325 µM): 0.318 | relative viability ([11]; first compound 0.2 µM): 0.24 | relative viability ([12]; first compound 0.002 µM): 0.309 | relative viability ([12]; first compound 0.006325 µM): 0.389 | relative viability ([12]; first compound 0.02 µM): 0.249 | relative viability ([12]; first compound 0.06325 µM): 0.316 | relative viability ([12]; first compound 0.2 µM): 0.303 | relative viability ([13]; first compound 0.002 µM): 0.614 | relative viability ([13]; first compound 0.006325 µM): 0.469 | relative viability ([13]; first compound 0.02 µM): 0.363 | relative viability ([13]; first compound 0.06325 µM): 0.103 | relative viability ([13]; first compound 0.2 µM): 0.122 | relative viability ([14]; first compound 0.002 µM): 0.714 | relative viability ([14]; first compound 0.006325 µM): 0.611 | relative viability ([14]; first compound 0.02 µM): 0.473 | relative viability ([14]; first compound 0.06325 µM): 0.716 | relative viability ([14]; first compound 0.2 µM): 0.413 | relative viability ([15]; first compound 0.002 µM): 0.423 | relative viability ([15]; first compound 0.006325 µM): 0.364 | relative viability ([15]; first compound 0.02 µM): 0.309 | relative viability ([15]; first compound 0.06325 µM): 0.0518 | relative viability ([15]; first compound 0.2 µM): 0.0463 | relative viability ([16]; first compound 0.002 µM): 0.205 | relative viability ([16]; first compound 0.006325 µM): 0.232 | relative viability ([16]; first compound 0.02 µM): 0.185 | relative viability ([16]; first compound 0.06325 µM): 0.11 | relative viability ([16]; first compound 0.2 µM): 0.114 | relative viability ([17]; first compound 0.002 µM): 0.41 | relative viability ([17]; first compound 0.006325 µM): 0.383 | relative viability ([17]; first compound 0.06325 µM): 0.376 | relative viability ([17]; first compound 0.2 µM): 0.315 | relative viability ([18]; first compound 0.002 µM): 0.135 | relative viability ([18]; first compound 0.006325 µM): 0.132 | relative viability ([18]; first compound 0.02 µM): 0.102 | relative viability ([18]; first compound 0.06325 µM): 0.0751 | relative viability ([18]; first compound 0.2 µM): 0.0736 | relative viability ([19]; first compound 0.002 µM): 0.301 | relative viability ([19]; first compound 0.006325 µM): 0.213 | relative viability ([19]; first compound 0.02 µM): 0.176 | relative viability ([19]; first compound 0.06325 µM): 0.121 | relative viability ([19]; first compound 0.2 µM): 0.135 | relative viability ([20]; first compound 0.002 µM): 0.848 | relative viability ([20]; first compound 0.006325 µM): 0.937 | relative viability ([20]; first compound 0.02 µM): 0.764 | relative viability ([20]; first compound 0.06325 µM): 0.861 | relative viability ([20]; first compound 0.2 µM): 0.411 | relative viability ([21]; first compound 0.002 µM): 0.296 | relative viability ([21]; first compound 0.006325 µM): 0.335 | relative viability ([21]; first compound 0.02 µM): 0.368 | relative viability ([21]; first compound 0.06325 µM): 0.151 | relative viability ([21]; first compound 0.2 µM): 0.172 | relative viability ([22]; first compound 0.002 µM): 0.426 | relative viability ([22]; first compound 0.006325 µM): 0.344 | relative viability ([22]; first compound 0.02 µM): 0.396 | relative viability ([22]; first compound 0.06325 µM): 0.101 | relative viability ([22]; first compound 0.2 µM): 0.0763 | relative viability ([23]; first compound 0.002 µM): 0.577 | relative viability ([23]; first compound 0.006325 µM): 0.566 | relative viability ([23]; first compound 0.02 µM): 0.549 | relative viability ([23]; first compound 0.06325 µM): 0.144 | relative viability ([23]; first compound 0.2 µM): 0.134
